Measured values reported in patent publication US8829014B2, “Thiazole and thiophene analogues, and their use in treating autoimmune diseases and cancers” (Board of Supervisors of Louisiana State University and …, priority 2006, dated 2014).

Assays:
Format in all cases: cell-based
NF-κB = NF-κB inhibitor screen: basal NF-κB-dependent luciferase expression in HEK/NF-κB cell line
How it was run: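 Basal NF-κB-driven luciferase (six-copy element, stable HEK293 line) was read with Brite-Glo. Compound was added in 0.3% DMSO 24 h post-plating, initially at 1.0 μM and then across 10–3300 nM in six steps, in triplicate wells. Signals were expressed relative to DMSO or to the lowest concentration tested.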

AP-1 = AP-1 inhibitor screen: basal AP-1-dependent luciferase expression in HEK/AP-1 cell line; settings: 1.0 μM, 48 hr screen of 39 compounds (FIG. 13)
How it was run: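 Compound effects on unstimulated reporter signal were tested: 1.0 μM compound (0.3% DMSO) for 48 hr on HEK cells bearing an AP-1 (TGACTAA ×3)-luciferase construct, seeded 24 hr earlier. Triplicate luminescence means were normalized to DMSO-only wells; dose-response experiments were repeated 2–4 times.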

eIF4E = eIF4E inhibitor screen: luciferase under FGF 5′UTR in FaDu cells (highly cap-dependent translation)
Description: Since highly cap-dependent translation is associated with synthesis of proteins involved in cancer, a compound that inhibits this pathway may be used as an anti-cancer agent. The assay was developed by cloning the highly structured 5′ UTR of FGF, which requires high levels of eIF4E before protein synthesis can initiate, into the proper orientation of the reporter gene luciferase, and then stably transfecting the modified luciferase gene into the cell line FaDu that is known to have high levels of eIF4E. The activity of luciferase is then monitored in the presence and absence of the tested compound.
Generation of Stable Cell Lines: The pMS110 plasmid (pGL3-control plasmid from Promega which contains a neo selectable marker) was used to generate pMS110-5′UTR by cloning the 5′ UTR of FGF just upstream of the luciferase AUG start codon. FaDu cells, a head and neck cancer cell line, were transfected using Lipofectamine2000 (Invitrogen). Twenty-four hours after transfection G418 was added at 500 μg/ml. Cells were maintained in G418 for 14 days, and then individual colonies were transferred to a 96-well plate for propagation. Individual clones were analyzed for luciferase expression by plating 10^4 cells per well in a 96-well plate for 24 hours before lysing the cells and analyzing for luciferase activity in a Victor III (Perkin Elmer) or Lucy2 (Rosys Anthos). FaDu9000 and FaDuUTR were the clones that expressed the highest level of active luciferase following transfection of pMS110 and pMS110-5′UTR, respectively.
Analysis of Rapamycin Responsiveness: Cells of FaDu9000 and FaDuUTR were plated at 1×10^4 cells/well in a 96-well dish. Twenty-four hours after plating, 0.1% DMSO (vehicle control) or 10 nM rapamycin were added to each well, and the cells were maintained for an additional 24 or 48 hours. The cells were then lysed and luciferase activity was determined using BriteGlo (Promega) as per manufacturer's instruction and recorded using the Victor III. Following subtraction of background activity, the mean value of quadruplicate samples for a given experiment was determined, and the treated cells were normalized to the control. At least four separate experiments were conducted, and the mean and standard error were calculated. To determine if rapamycin affected cell viability, an MTS assay (Cell Proliferation One Solution, Promega) was carried out on each population at 48 hours in two separate experiments.
The FaDu cell line stably transfected with FGF 5′UTR was used to screen thirty-nine representative compounds, each at a concentration of 1.0 μM. Additional cells were treated with vehicle, 0.3% DMSO. Cells were plated for twenty-four hours in a 96-well plate. Each compound was then added to triplicate wells, and the cells were incubated for forty-eight hours before measuring luciferase activity as above. The mean luciferase activity was measured using Promega's Brite-Glo kit, and the mean for each sample was normalized to DMSO. The experiment was then repeated, and the average and standard deviation of the two experiments were determined (FIG. 8).

FaDu cells = settings: MTT, 24 hr, 10 nM to 3.3 μM (FIG. 9)
Description: […]. Values greater than 1.0 indicate activation, and values less than 1.0 indicate inhibition.) The compounds that inhibited luciferase translation might, potentially, act by generally inhibiting translation, by reducing cell numbers through inhibition of growth or by cell toxicity, or specifically by inhibiting highly cap-dependent translation. To analyze any general effects on cell viability, fourteen compounds were selected that altered luciferase activity (including a few that increased activity) to test for any effects on cell number. An MTT assay was used to monitor compounds for inhibition of cell growth and cell toxicity. The compounds were tested once in a six-point dose-response assay starting at 10 nM and increasing to 3.3 μM. FaDu cells were plated in a 96-well plate for 24 hr before addition of the compounds. Each compound was added in each of six concentrations (10 nM, 30 nM, 100 nM, 330 nM, 1000 nM, and 3300 nM), and each concentration was tested in triplicate. In addition, DMSO was used as a control. After incubating for 24 hr, the cell number was measured using the MTT assay.

COc1ccc(C(=O)c2sc(Nc3ccc(Cl)cc3)nc2-c2ccncc2)cc1 [Example 116]
basal NF-κB-dependent luciferase, six-point dose response (NF-κB; 10 nM-3300 nM (FIG. 12)): robust inhibition
inhibition of basal NF-κB-dependent luciferase expression (NF-κB; 3.3 μM (FIG. 12)): about 50%
inhibition of NF-κB (summary statement) (NF-κB; summary in the disclosure): capable of inhibiting
basal AP-1-dependent luciferase expression (AP-1): almost complete inhibition
luciferase expression under the control of the FGF 5′UTR (eIF4E; 1.0 μM, 48 h, FaDu UTR cells, normalized to DMSO (FIG. 8)): inhibited luciferase expression
inhibition of luciferase activity (FGF 5′UTR) (eIF4E; highest concentration tested): greater than 90%
inhibition of highly cap-dependent translation (summary statement) (eIF4E; summary in the disclosure): capable of inhibiting
FaDu cell number / growth / viability (FaDu cells): inhibited cell numbers at each concentration tested
